# Measured values as given in US8552175B2, “Sulfur transfer reagents for oligonucleotide synthesis” (A.M. Chemicals, Inc., priority 2009, dated 2013).
# How the values were obtained:
# [1] = tested on: solid support-bound internucleosidic phosphite triesters; test: Sulfur transfer in solid phase synthesis of oligonucleotide phosphorothioates, HPLC and ES MS; details: for contact time required for complete sulfur transfer: optimized conditions
Compound,contact time required for complete sulfur transfer ([1]; 0.02 M solution of reagent) [min],contact time required for complete sulfur transfer ([1]; 0.05 M solution of reagent) [min],contact time required for complete sulfur transfer ([1]; 0.1 M solution of reagent) [min],performance in oligonucleotide synthesis compared with compound 1 ([1]; in words),melting point [°C]
"5-Phenyl-3H-1,2,4-dithiazol-3-thione [Compound 7]",2,1,0.5,substantially similar performance,–
"S=c1ncss1 [Compound 6, 3H-1,2,4-dithiazol-3-thione]",–,–,–,–,73 to 75
